Assay results taken from patent US10952433B2, “Solutions for enhancing the effectiveness of insecticides and fungicides on living plants and related methods” (priority 2015, dated 2021).
Like-named read-outs stand apart in the source and are kept apart here.

How the values were obtained:
Gypsy Moth Catepillar = assay: Gypsy moth caterpillar damage to white oak seedlings after hand spray (Table 5); type: in vivo, gypsy moth (on white oak seedlings)
Procedure: The particular solutions tested were applied to a stem of the white oak seedling using a low volume hand spray and spraying 20 milliliters per seedling. A total of 20 seedlings were tested. […] At permethrin concentration of 50 ppm, the damage after one month was 30% and with 100 ppm used alone, the damage was 0. When buffered amine oxide system No. 3 was employed in concentrations of 400:1 with 10 ppm of the insecticide, the gypsy moth caterpillar damage was 10% and when a concentration of 200:1 was employed with 10 ppm insecticide, the damage was 0.

[1] = test system: lepidopteran larvae: cabbage loopers (Trichoplusia ni) and beet armyworms (Spodoptera exigua); type: in vivo; settings: plants
Procedure, shortened: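 Romaine lettuce plants 2-3 inches tall were sprayed with 10 mL of insecticide (ppm) with buffer, amine oxide or buffered amine oxide at 200:1, then infested with 15 T. ni and 15 S. exigua larvae (5th-6th instar) per container. Leaf surface damage scored visually in 5% increments after 24 h.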

[2] = test system: lepidopteran larvae: cabbage loopers (Trichoplusia ni) and beet armyworms (Spodoptera exigua); type: in vivo; settings: leaf discs
Procedure, shortened: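 Romaine lettuce leaf discs (⅝ inch) dipped about one second in treatment solution and infested with four cabbage loopers and four beet armyworms (3rd-4th instar) per container. Held dark at 15 °C, 80% RH; percent disc-area damage scored visually in 5% increments at 24, 48 and 72 h.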

[3] = insecticide + CO3 buffer 200:1, no amine oxide, PPM: Chlorantranilopril 60, Acephate 70, Methoxyfenozide 100, Spinosad 30, Permethrin 10, Indoxacarb 50
[4] = insecticide + PO4 buffer 200:1, no amine oxide, PPM: Chlorantranilopril 60, Acephate 70, Methoxyfenozide 100, Spinosad 30, Permethrin 10, Indoxacarb 50
[5] = insecticide + amine oxide 12, no buffer, 200:1, PPM: Chlorantranilopril 60, Acephate 70, Methoxyfenozide 100, Spinosad 30, Permethrin 10, Indoxacarb 50
[6] = insecticide + amine oxide 1218, no buffer, 200:1, PPM: Chlorantranilopril 60, Acephate 70, Methoxyfenozide 100, Spinosad 30, Permethrin 10, Indoxacarb 50
[7] = insecticide + buffered amine oxide system CO3, 12, 200:1, PPM: Chlorantranilopril 60, Acephate 70, Methoxyfenozide 100, Spinosad 30, Permethrin 10, Indoxacarb 50
[8] = insecticide + buffered amine oxide system CO3, 1218, 200:1, PPM: Chlorantranilopril 60, Acephate 70, Methoxyfenozide 100, Spinosad 30, Permethrin 10, Indoxacarb 50
[9] = insecticide + buffered amine oxide system PO4, 12, 200:1, PPM: Chlorantranilopril 60, Acephate 70, Methoxyfenozide 100, Spinosad 30, Permethrin 10, Indoxacarb 50
[10] = insecticide + buffered amine oxide system PO4, 1218, 200:1, PPM: Chlorantranilopril 60, Acephate 70, Methoxyfenozide 100, Spinosad 30, Permethrin 10, Indoxacarb 50
[11] = insecticide alone, highest, PPM: Chlorantranilopril 120, Acephate 140, Methoxyfenozide 200, Spinosad 60, Permethrin 20, Indoxacarb 100
[12] = insecticide alone, increased, PPM: Chlorantranilopril 90, Acephate 105, Methoxyfenozide 150, Spinosad 45, Permethrin 15, Indoxacarb 75
[13] = insecticide alone, PPM: Chlorantranilopril 60, Acephate 70, Methoxyfenozide 100, Spinosad 30, Permethrin 10, Indoxacarb 50

## CC1(C)C(C=C(Cl)Cl)C1C(=O)OCc1cccc(Oc2ccccc2)c1 (stereo not drawn) [Permethrin]
Gypsy Moth Catepillar; Permethrin 10 PPM + buffered amine oxide system 3, amine oxide 12, 200:1
  Percent Gypsy Moth Catepillar Damage to White Oak 1 Month After Application: 0%
Gypsy Moth Catepillar; Permethrin 10 PPM + buffered amine oxide system 3, amine oxide 12, 400:1
  Percent Gypsy Moth Catepillar Damage to White Oak 1 Month After Application: 10%
Gypsy Moth Catepillar; Permethrin 10 PPM + buffered amine oxide system 4, amine oxide 12, 200:1
  Percent Gypsy Moth Catepillar Damage to White Oak 1 Month After Application: 0%
Gypsy Moth Catepillar; Permethrin 10 PPM + buffered amine oxide system 4, amine oxide 12, 400:1
  Percent Gypsy Moth Catepillar Damage to White Oak 1 Month After Application: 10%
Gypsy Moth Catepillar; Permethrin 10 PPM alone
  Percent Gypsy Moth Catepillar Damage to White Oak 1 Month After Application: 80%
Gypsy Moth Catepillar; Permethrin 50 PPM alone
  Percent Gypsy Moth Catepillar Damage to White Oak 1 Month After Application: 30%
Gypsy Moth Catepillar; Permethrin 100 PPM alone
  Percent Gypsy Moth Catepillar Damage to White Oak 1 Month After Application: 0%
[1]; [3]
  Percent Lepidopteran Damage to Romaine Lettuce 24 hr: 80.5%
[1]; [4]
  Percent Lepidopteran Damage to Romaine Lettuce 24 hr: 83.0%
[1]; [5]
  Percent Lepidopteran Damage to Romaine Lettuce 24 hr: 77.5%
[1]; [6]
  Percent Lepidopteran Damage to Romaine Lettuce 24 hr: 72.0%
[1]; [7]
  Percent Lepidopteran Damage to Romaine Lettuce 24 hr: 22.5%
[1]; [8]
  Percent Lepidopteran Damage to Romaine Lettuce 24 hr: 28.0%
[1]; [9]
  Percent Lepidopteran Damage to Romaine Lettuce 24 hr: 24.0%
[1]; [10]
  Percent Lepidopteran Damage to Romaine Lettuce 24 hr: 21.0%
[1]; [11]
  Percent Lepidopteran Damage to Romaine Lettuce 24 hr: 90.0%
[1]; [12]
  Percent Lepidopteran Damage to Romaine Lettuce 24 hr: 78.0%
[1]; [13]
  Percent Lepidopteran Damage to Romaine Lettuce 24 hr: 77.0%
[2]; [3]
  Percent Lepidopteran Damage to Romaine Lettuce 24 hr: 53.5%
  Percent Lepidopteran Damage to Romaine Lettuce 48 hr: 97.5%
  Percent Lepidopteran Damage to Romaine Lettuce 72 hr: 100.0%
[2]; [4]
  Percent Lepidopteran Damage to Romaine Lettuce 24 hr: 28.5%
  Percent Lepidopteran Damage to Romaine Lettuce 48 hr: 79.0%
  Percent Lepidopteran Damage to Romaine Lettuce 72 hr: 100.0%
[2]; [5]
  Percent Lepidopteran Damage to Romaine Lettuce 24 hr: 17.0%
  Percent Lepidopteran Damage to Romaine Lettuce 48 hr: 60.0%
  Percent Lepidopteran Damage to Romaine Lettuce 72 hr: 89.0%
[2]; [6]
  Percent Lepidopteran Damage to Romaine Lettuce 24 hr: 24.0%
  Percent Lepidopteran Damage to Romaine Lettuce 48 hr: 95.0%
  Percent Lepidopteran Damage to Romaine Lettuce 72 hr: 100.0%
[2]; [7]
  Percent Lepidopteran Damage to Romaine Lettuce 24 hr: 23.5%
  Percent Lepidopteran Damage to Romaine Lettuce 48 hr: 67.0%
  Percent Lepidopteran Damage to Romaine Lettuce 72 hr: 91.0%
[2]; [8]
  Percent Lepidopteran Damage to Romaine Lettuce 24 hr: 2.0%
  Percent Lepidopteran Damage to Romaine Lettuce 48 hr: 4.5%
  Percent Lepidopteran Damage to Romaine Lettuce 72 hr: 5.0%
[2]; [9]
  Percent Lepidopteran Damage to Romaine Lettuce 24 hr: 3.0%
  Percent Lepidopteran Damage to Romaine Lettuce 48 hr: 10.5%
  Percent Lepidopteran Damage to Romaine Lettuce 72 hr: 21.0%
[2]; [10]
  Percent Lepidopteran Damage to Romaine Lettuce 24 hr: 1.5%
  Percent Lepidopteran Damage to Romaine Lettuce 48 hr: 3.0%
  Percent Lepidopteran Damage to Romaine Lettuce 72 hr: 3.0%
[2]; [11]
  Percent Lepidopteran Damage to Romaine Lettuce 24 hr: 1.5%
  Percent Lepidopteran Damage to Romaine Lettuce 48 hr: 4.0%
  Percent Lepidopteran Damage to Romaine Lettuce 72 hr: 4.5%
[2]; [12]
  Percent Lepidopteran Damage to Romaine Lettuce 24 hr: 0.0%
  Percent Lepidopteran Damage to Romaine Lettuce 48 hr: 0.5%
  Percent Lepidopteran Damage to Romaine Lettuce 72 hr: 0.5%
[2]; [13]
  Percent Lepidopteran Damage to Romaine Lettuce 24 hr: 85.5%
  Percent Lepidopteran Damage to Romaine Lettuce 48 hr: 100.0%
  Percent Lepidopteran Damage to Romaine Lettuce 72 hr: 100.0%
